The source of these data is ChEMBL document CHEMBL2074283, “Interaction of pristinamycin IA with P-glycoprotein in human intestinal epithelial cells” (Eur J Pharmacol, 1995).

Bridge positions count the residues as written; N and C are the ends. Square brackets hold non-standard residues; d marks the D form. Peptide text beside a SMILES is read from it. * marks the point of attachment. NMePhe(4-NMe2) = CN[C@@H](Cc1ccc(N(C)C)cc1)C(=O)O; Pip(4-oxo) = O=C1CCN[C@H](C(=O)O)C1; Picolinoyl(3-OH) = O=C(c1ncccc1O)*; Phg = N[C@H](C(=O)O)c1ccccc1; dAbu = CC[C@@H](N)C(=O)O

Series [1] concerns the target ATP-dependent translocase ABCB1 (Homo sapiens, UniProt P08183). In words: TP_TRANSPORTER: transepithelial transport (basal to apical) in Caco-2 cells. Type of series: functional, cell-based. (Caco-2 monolayers are a common model of the intestinal barrier.)
Series [2] has as its target P-glycoprotein (ABCB1) (Homo sapiens, UniProt P08183). In words: TP_TRANSPORTER: inhibition of Vinblastine transepithelial transport (basal to apical) (Vinblastine: 0.05 uM, Pristinamycin IA: 100 uM) in Caco-2 cells. Type of series: functional, cell-based. The note with it: Caco-2, probe Vinblastine 0.05 uM.

Sequence of ATP-dependent translocase ABCB1 (P08183 whole entry): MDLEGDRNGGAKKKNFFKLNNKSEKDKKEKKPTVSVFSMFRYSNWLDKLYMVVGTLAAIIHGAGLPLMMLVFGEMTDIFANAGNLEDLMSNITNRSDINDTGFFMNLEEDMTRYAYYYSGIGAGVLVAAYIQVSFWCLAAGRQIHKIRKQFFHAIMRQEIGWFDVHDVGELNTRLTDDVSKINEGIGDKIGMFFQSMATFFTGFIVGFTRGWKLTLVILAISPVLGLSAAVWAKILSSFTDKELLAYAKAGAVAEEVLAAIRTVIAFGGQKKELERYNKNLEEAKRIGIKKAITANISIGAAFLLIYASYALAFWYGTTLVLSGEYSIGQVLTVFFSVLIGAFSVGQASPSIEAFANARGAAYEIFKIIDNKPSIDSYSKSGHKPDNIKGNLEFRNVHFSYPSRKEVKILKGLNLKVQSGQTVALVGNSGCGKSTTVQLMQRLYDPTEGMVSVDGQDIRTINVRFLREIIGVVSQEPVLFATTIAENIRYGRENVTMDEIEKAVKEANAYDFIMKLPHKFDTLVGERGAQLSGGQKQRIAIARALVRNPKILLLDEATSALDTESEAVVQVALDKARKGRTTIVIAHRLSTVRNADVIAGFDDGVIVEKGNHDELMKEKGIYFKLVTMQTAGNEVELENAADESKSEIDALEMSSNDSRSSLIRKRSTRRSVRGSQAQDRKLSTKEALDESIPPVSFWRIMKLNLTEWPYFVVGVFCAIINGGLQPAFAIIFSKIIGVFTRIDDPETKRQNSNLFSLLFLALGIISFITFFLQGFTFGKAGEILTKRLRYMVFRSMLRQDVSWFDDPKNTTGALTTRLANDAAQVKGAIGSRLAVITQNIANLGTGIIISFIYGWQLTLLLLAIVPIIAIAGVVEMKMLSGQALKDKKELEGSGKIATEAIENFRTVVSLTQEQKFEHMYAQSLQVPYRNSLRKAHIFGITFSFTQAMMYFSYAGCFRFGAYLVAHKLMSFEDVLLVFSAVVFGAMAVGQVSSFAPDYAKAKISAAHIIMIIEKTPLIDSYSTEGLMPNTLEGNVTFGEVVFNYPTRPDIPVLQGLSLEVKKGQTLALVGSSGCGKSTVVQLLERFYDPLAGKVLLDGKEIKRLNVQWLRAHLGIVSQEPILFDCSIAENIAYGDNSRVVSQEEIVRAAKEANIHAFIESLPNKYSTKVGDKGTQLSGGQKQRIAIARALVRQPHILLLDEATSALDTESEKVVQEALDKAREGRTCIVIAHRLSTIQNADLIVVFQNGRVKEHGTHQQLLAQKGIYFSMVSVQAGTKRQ
Sequence of P-glycoprotein (ABCB1) (P08183 whole entry): as above

Regarding `CC[C@H]1NC(=O)[C@@H](NC(=O)c2ncccc2O)[C@@H](C)OC(=O)[C@H](c2ccccc2)NC(=O)[C@@H]2CC(=O)CCN2C(=O)[C@H](Cc2ccc(N(C)C)cc2)N(C)C(=O)[C@@H]2CCCN2C1=O` [PRISTINAMYCIN 1A] ({Picolinoyl(3-OH)}-T[dAbu]P[NMePhe(4-NMe2)][Pip(4-oxo)][Phg]; ester 1-C), the Activity result in series [1] was “substrate [+]”. The inhibition – broadly, how much of the control response was suppressed – at 100 µM in series [2] turned out to be 55%.
